# Tested on: Erysiphe graminis f.sp. hordei
# Format: in vivo
# Conditions: 200 ppm
smiles,measurement,value
"CC#CC(C)(C)NC(=O)C(COC)Oc1cc(Cl)cc(Cl)c1 (stereo not shown) [4(1), 2-(3,5-dichlorophenoxy)-3-methoxy-N-(4-methylpent-2-yn-4-yl)propionamide]",control of fungal infection,at least 70%
